Earlier results, collected in patent US6555140B1, “Composition and method for enhancing male fertility and libido” (priority 1999, dated 2003).

What was measured:
[1] = in water
[2] = for share of the ingested amount metabolically degraded: transported from inside the intestine into the blood stream

| Solubility [1] | share of what is ingested metabolically available [2] | share of the ingested amount metabolically degraded [2] | Compound |
| --- | --- | --- | --- |
| Soluble in water up to 50 mg/ml | about 70% | about 30% | NCCCCNCCCN [Spermidine Free Base, Spermidine] |
| Soluble in water up to 50 mg/ml | about 70% | about 30% | NCCCNCCCCNCCCN [Spermine Free Base, Spermine] |
